Experimental data from US20240158369A1, “PYRIMIDINE COMPOUND AS WEE-1 INHIBITOR” (WIGEN BIOMEDICINE TECHNOLOGY (SHANGHAI) CO., LTD., priority 2021, published 2024).
Like-named read-outs stand apart in the source and are kept apart here.

Experiments:
[1] = tested on: MIA PaCa-2 cells; experiment: In-vitro anti-proliferative activity in combination with gemcitabine on MIA PaCa-2 cells; assay type: cell-based; conditions: 72 h
Description: MIA PaCa-2 cells were seeded on a 384-well plate at 3000 cells/well, and 20 nM or 200 nM gemcitabine (GMC) was added. After overnight adherence culture, DMSO or the compounds serially 1:5-diluted from 100 nM were added. The viability was assessed 72 h after dosing by measuring the intracellular ATP content. The inhibition percentage of viable cells by the compounds was calculated by comparing with the DMSO group, and the IC50 value was calculated.

[2] = biological target: recombinant protein Wee-1 (Homo sapiens (Human), UniProt P30291); experiment: HTRF assay for inhibiting enzymatic activity of recombinant protein Wee-1; assay type: biochemical; conditions: compounds up to 200 nM, read-out: (IC50) Inhibitory activity against recombinant protein Wee-1
Description: The inhibitory effect of the compounds on the enzyme activity of recombinant protein Wee-1 was determined by HTRF. The procedures are as follows:
After DMSO or serially diluted compounds (up to 200 nM, 1:5 diluted) and recombinant proteins were co-incubated in a kinase buffer at 37° C. for 30 min before Fluorescein-PolyGAT and ATP were added, and the reaction was initiated by addition of a substrate. After incubation at room temperature for 90 min, an antibody and a detection solution were added, and after further incubation at room temperature for 60 min, fluorescence values were detected (excitation wavelength: 340 nm, emission wavelengths: 495 and 520 nm). The 520 nm/495 nm fluorescence intensity ratio value was calculated, and compared with that of the DMSO group, and then the inhibition percentages and IC50 values of the compounds were calculated.

[3] = with 20 nM gemcitabine, read-out: in combination with 20 nM GMC IC50
[4] = with 200 nM gemcitabine, read-out: in combination with 200 nM GMC IC50

recombinant protein Wee-1, sequence (P30291 whole entry): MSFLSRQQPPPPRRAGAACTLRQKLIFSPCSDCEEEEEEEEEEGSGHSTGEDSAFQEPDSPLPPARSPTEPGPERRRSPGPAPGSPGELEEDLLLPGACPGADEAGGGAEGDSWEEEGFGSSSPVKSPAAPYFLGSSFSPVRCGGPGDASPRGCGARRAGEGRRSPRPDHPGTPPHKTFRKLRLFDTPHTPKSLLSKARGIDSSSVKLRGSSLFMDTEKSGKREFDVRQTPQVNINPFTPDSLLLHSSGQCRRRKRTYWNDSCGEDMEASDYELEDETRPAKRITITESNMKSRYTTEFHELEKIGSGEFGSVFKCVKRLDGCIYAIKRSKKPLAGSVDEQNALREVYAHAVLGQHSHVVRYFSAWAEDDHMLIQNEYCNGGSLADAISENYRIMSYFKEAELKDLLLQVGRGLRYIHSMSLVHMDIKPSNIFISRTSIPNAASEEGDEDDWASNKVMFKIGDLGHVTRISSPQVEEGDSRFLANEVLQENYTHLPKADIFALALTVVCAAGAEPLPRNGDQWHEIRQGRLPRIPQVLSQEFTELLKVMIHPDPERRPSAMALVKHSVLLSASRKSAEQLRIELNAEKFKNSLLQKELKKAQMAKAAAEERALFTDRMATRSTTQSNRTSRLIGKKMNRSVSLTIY

Row | Compound | IC50 [1, 3] [nM] | IC50 [2] [nM] | IC50 [1, 4] [nM]
1 | CN1CCc2ccc(Nc3ncc(I)c(Nc4cccc(N=S(C)(C)=O)n4)n3)cc2C1 [Compound 105] | 26.5 | ≤ 10 | 
2 | COC1CCN(c2cc(Nc3ncc(C#N)c(Nc4cccc(N=S(C)(C)=O)n4)n3)cc3c2CCN(C)C3)CC1 [Compound 120] | 4.5 | ≤ 10 | 
3 | CN1CCN(c2cc(Nc3ncc(C#N)c(Nc4cccc(N=S(C)(C)=O)n4)n3)cc3c2CCN(C)C3)CC1 [Compound 119] | 2.6 | ≤ 10 | 
4 | CN1CCc2c(CO)cc(Nc3ncc(C#N)c(Nc4cccc(N=S(C)(C)=O)n4)n3)cc2C1 [Compound 131] | 6.7 | ≤ 10 | 
5 | CN1CCc2c(cc(Nc3ncc(C#N)c(Nc4cccc(N=S(C)(C)=O)n4)n3)cc2-c2cc[nH]n2)C1 [Compound 112] | > 100 | ≤ 10 | 
6 | CN1CCc2c(cc(Nc3ncc(C#N)c(Nc4cccc(N=S(C)(C)=O)n4)n3)cc2N2CCCC2)C1 [Compound 19] |  | ≤ 10 | 640
7 | CN1CCN(c2ccc(Nc3ncc(C#N)c(Nc4cccc(N=S(C)(C)=O)n4)n3)cc2)CC1 [Compound 61] | 7.5 | ≤ 10 | 
8 | COc1cc(Nc2ncc(C#N)c(Nc3cccc(N=S(C)(C)=O)n3)n2)cc2c1CCN(C)C2 [Compound 22] |  | ≤ 10 | 1.2
9 | CN1CCc2ccc(Nc3ncc(C#N)c(-c4c[nH]c5c(N=S(C)(C)=O)cccc45)n3)cc2C1 [Compound 78] | > 100 | ≤ 10 | 
10 | Cc1cc(Nc2ncc(C#N)c(Nc3cccc(N=S(C)(C)=O)n3)n2)cc(C2CC2)c1N1CCN(C)CC1 [Compound 156] | 6 | ≤ 10 | 
11 | C[C@@H]1CN(c2cc(Nc3ncc(C#N)c(Nc4cccc(N=S(C)(C)=O)n4)n3)cc3c2CCN(C)C3)C[C@@H](C)O1 [Compound 122] | 49 | ≤ 10 | 
12 | CNC(=O)c1cnc(Nc2ccc3c(c2)CN(C)CC3)nc1Nc1cccc(N=S(C)(C)=O)n1 [Compound 7] | > 100 | > 50 | 
13 | COCc1cc(Nc2ncc(C#N)c(Nc3cccc(N=S(C)(C)=O)n3)n2)cc2c1CCN(C)C2 [Compound 124] | 2.7 | ≤ 10 | 
14 | CN1Cc2cc(Nc3ncc(C#N)c(Nc4cccc(N=S(C)(C)=O)n4)n3)ccc2C2(CC2)C1 [Compound 29] | 3.7 | ≤ 10 | 
15 | CN1CCc2ccc(Nc3ncc(C(=O)N(C)C)c(Nc4cccc(N=S(C)(C)=O)n4)n3)cc2C1 [Compound 8] | > 100 | > 50 | 
16 | Cc1cc(Nc2ncc(C#N)c(Nc3cccc(N=S(C)(C)=O)n3)n2)ccc1N1CCN(C)CC1 [Compound 153] | 3.5 | ≤ 10 | 
17 | CN1CCc2c(cc(Nc3ncc(C#N)c(Nc4cccc(N=S(C)(C)=O)n4)n3)cc2-c2ccn(C)n2)C1 [Compound 113] | 11.7 | ≤ 10 | 
18 | C=Cc1cc(Nc2ncc(C#N)c(Nc3cccc(N=S(C)(C)=O)n3)n2)cc2c1CCN(C)C2 [Compound 42] |  | ≤ 10 | 10
19 | C[C@@H]1CN(c2cc(Nc3ncc(C#N)c(Nc4cccc(N=S(C)(C)=O)n4)n3)cc3c2CCN(C)C3)C[C@H](C)O1 [Compound 127] | 8.2 | ≤ 10 | 

Row | Compound | IC50 [1, 3] [nM] | IC50 [2] [nM] | IC50 [1, 4] [nM]
20 | C#Cc1cc(Nc2ncc(C#N)c(Nc3cccc(N=S(C)(C)=O)n3)n2)cc2c1CCN(C)C2 [Compound 43] | 21.2 | ≤ 10 | 
21 | CN1CCc2c(cc(Nc3ncc(C#N)c(Nc4cccc(N=S(C)(C)=O)n4)n3)cc2C2=CCOCC2)C1 [Compound 118] | 1.1 | ≤ 10 | 
22 | CN1CCc2ccc(Nc3ncc(Br)c(Nc4cccc(N=S(C)(C)=O)n4)n3)cc2C1 [Compound 11] | 16 | ≤ 10 | 
23 | CN1CCc2ccc(Nc3ncc(S(C)(=O)=O)c(Nc4cccc(N=S(C)(C)=O)n4)n3)cc2C1 [Compound 5] | > 100 | > 50 | 
24 | CN1CCc2ccc(Nc3ncc(C#N)c(-n4cnc5c(N=S(C)(C)=O)cccc54)n3)cc2C1 [Compound 80] |  | 10 to 50 | > 100
25 | CN1CCc2c(cc(Nc3ncc(C#N)c(Nc4cccc(N=S(C)(C)=O)n4)n3)cc2-c2ccccc2)C1 [Compound 111] | 6.5 | ≤ 10 | 
26 | CN1CCc2c(F)cc(Nc3ncc(C#N)c(Nc4cccc(N=S(C)(C)=O)n4)n3)cc2C1 [Compound 25] | 18.6 | ≤ 10 | 
27 | CN1CCc2c(C#N)cc(Nc3ncc(C#N)c(Nc4cccc(N=S(C)(C)=O)n4)n3)cc2C1 [Compound 41] |  | 10 to 50 | > 100
28 | CS(C)(=O)=Nc1cccc(Nc2nc(Nc3ccc4c(c3)CCC(N3CCCC3)CC4)ncc2C#N)n1 (stereo not shown) [Compound 146] | 4.8 | ≤ 10 | 
29 | CN1CCC(N2CCN(c3ccc(Nc4ncc(C#N)c(Nc5cccc(N=S(C)(C)=O)n5)n4)cc3)CC2)CC1 [Compound 62] | 12.5 | ≤ 10 | 
30 | CC1CN(c2cc(Nc3ncc(C#N)c(Nc4cccc(N=S(C)(C)=O)n4)n3)cc3c2CCN(C)C3)CCO1 (stereo not shown) [Compound 123] | 28 | ≤ 10 | 
31 | CN1CCc2c(cc(Nc3ncc(C#N)c(Nc4cccc(N=S(C)(C)=O)n4)n3)cc2C2=CCCCC2)C1 [Compound 152] | 3.8 | ≤ 10 | 
32 | CN1CCc2c(cc(Nc3ncc(C#N)c(Nc4cccc(N=S(C)(C)=O)n4)n3)cc2N2CCOCC2)C1 [Compound 116] | 1.3 | ≤ 10 | 
33 | CN(C)C1Cc2ccc(Nc3ncc(C#N)c(Nc4cccc(N=S(C)(C)=O)n4)n3)cc2C1 (stereo not shown) [Compound 60] | 10.3 | ≤ 10 | 
34 | CN1CCc2ccc(Nc3ncc(-c4ccc(F)nc4)c(Nc4cccc(N=S(C)(C)=O)n4)n3)cc2C1 [Compound 108] | > 100 | 10 to 50 | 
35 | CN1CCc2c(I)cc(Nc3ncc(C#N)c(Nc4cccc(N=S(C)(C)=O)n4)n3)cc2C1 [Compound 28] | 14.5 | ≤ 10 | 
36 | CS(C)(=O)=Nc1cccc(Nc2nc(Nc3cc4c(c(C5CC5)c3)CCNC4)ncc2C#N)n1 [Compound 148] | 2.1 | ≤ 10 | 
37 | CN1CCc2c(cc(Nc3ncc(C#N)c(Nc4cccc(N=S(C)(C)=O)n4)n3)cc2C(F)(F)F)C1 [Compound 20] | 25 | ≤ 10 | 
38 | CN1CCc2ccc(Nc3ncc(C#N)c(Oc4cccc(N=S(C)(C)=O)n4)n3)cc2C1 [Compound 106] | > 100 | ≤ 10 | 

Row | Compound | IC50 [1, 3] [nM] | IC50 [2] [nM] | IC50 [1, 4] [nM]
39 | Cc1cc(Nc2ncc(C#N)c(Nc3cccc(N=S(C)(C)=O)n3)n2)cc2c1CCN(C)C2 [Compound 12] | 1.4 | ≤ 10 | 
40 | CN1CCc2c(cc(Nc3ncc(C#N)c(Nc4ccccc4N=S(C)(C)=O)n3)cc2C2CC2)C1 [Compound 150] | 3.5 | 10 to 50 | 
41 | CN1CCc2ccc(Nc3nccc(Nc4cccc(N=S(C)(C)=O)n4)n3)cc2C1 [Compound 145] | > 100 | > 50 | 
42 | CN1CCc2ccc(Nc3ncc(C#N)c(-c4cn(C)c5c(N=S(C)(C)=O)cccc45)n3)cc2C1 [Compound 79] |  | ≤ 10 | > 100
43 | CN1CCc2ccc(Nc3ncc(C#N)c(Nc4cccc(N=S(C)(C)=O)n4)n3)cc2CC1 [Compound 55] | 11.3 | ≤ 10 | 
44 | COc1cc2c(cc1Nc1ncc(C#N)c(Nc3cccc(N=S(C)(C)=O)n3)n1)CN(C)CC2 [Compound 147] | 50 | ≤ 10 | 
45 | CN1CCc2ccc(Nc3ncc(C(N)=O)c(Nc4cccc(N=S(C)(C)=O)n4)n3)cc2C1 [Compound 6] | > 100 | > 50 | 
46 | C#Cc1cnc(Nc2ccc3c(c2)CN(C)CC3)nc1Nc1cccc(N=S(C)(C)=O)n1 [Compound 107] | 26.6 | ≤ 10 | 
47 | CC(C)c1cc(Nc2ncc(C#N)c(Nc3ccc(F)c(N=S(C)(C)=O)n3)n2)cc2c1CCN(C)C2 [Compound 91] |  | ≤ 10 | 
48 | COCCN1CCc2ccc(Nc3ncc(C#N)c(Nc4cccc(N=S(C)(C)=O)n4)n3)cc2C1 [Compound 49] |  | ≤ 10 | 
49 | CC(C)Oc1cc(Nc2ncc(C#N)c(Nc3ccc(F)c(N=S(C)(C)=O)n3)n2)cc2c1CCN(C)C2 [Compound 93] |  | ≤ 10 | 
50 | CCc1cc(Nc2ncc(C#N)c(Nc3cccc(N=S(C)(C)=O)n3)n2)cc2c1C1(CC1)CN(C)C2 [Compound 31] |  | ≤ 10 | 
51 | CN(C)C1CCc2ccc(Nc3ncc(C#N)c(Nc4cccc(N=S(C)(C)=O)n4)n3)cc2C1 (stereo not shown) [Compound 51] |  | ≤ 10 | 
52 | CN1Cc2cc(Nc3ncc(C#N)c(Nc4cccc(N=S(C)(C)=O)n4)n3)cc(C3CC3)c2C(C)(C)C1 [Compound 39] |  | ≤ 10 | 
53 | CN1CCc2c(cc(Nc3ncc(C#N)c(Nc4ccc(F)c(N=S(C)(C)=O)n4)n3)cc2C2CCC2)C1 [Compound 98] |  | ≤ 10 | 
54 | CN1CCc2ccc(Nc3ncc(C#N)c(Nc4cncc(N=S(C)(C)=O)c4)n3)cc2C1 [Compound 66] |  | ≤ 10 | 
55 | CN1CCc2c(cc(Nc3ncc(C#N)c(Nc4cccc(N=S(C)(C)=O)n4)n3)cc2-c2ccoc2)C1 [Compound 114] |  | ≤ 10 | 
56 | CC(C)Oc1cc(Nc2ncc(C#N)c(Nc3cccc(N=S(C)(C)=O)n3)n2)cc2c1CCN(C)C2 [Compound 24] |  | ≤ 10 | 
57 | Cc1cc(Nc2ncc(C#N)c(Nc3ccc4c(n3)N=S(C)(=O)C4)n2)cc2c1CCN(C)C2 (stereo not shown) [Compound 88] |  | > 50 | 
